Measured values as given in ChEMBL document CHEMBL2412954, “Synthesis and characterization of time-resolved fluorescence probes for evaluation of competitive binding to melanocortin receptors” (Bioorg Med Chem, 2013).

What was measured:
[1] = biological target: T1, Melanocortin receptor 4 (Homo sapiens, UniProt P32245); assay: Displacement of Eu-DTPA-PEGOMSH(7) from human MC4R expressed in […] cells after 1 hr by time-resolved fluorescence assay; type: cell-based, HEK293
[2] = biological target: T1, Melanocortin receptor 4; assay: Displacement of Eu-DTPA-PEGO-NDP-alpha-MSH-NH2 from human MC4R expressed in […] cells after 1 hr by time-resolved fluorescence assay; type: cell-based, HEK293

T1 sequence (P32245 whole entry): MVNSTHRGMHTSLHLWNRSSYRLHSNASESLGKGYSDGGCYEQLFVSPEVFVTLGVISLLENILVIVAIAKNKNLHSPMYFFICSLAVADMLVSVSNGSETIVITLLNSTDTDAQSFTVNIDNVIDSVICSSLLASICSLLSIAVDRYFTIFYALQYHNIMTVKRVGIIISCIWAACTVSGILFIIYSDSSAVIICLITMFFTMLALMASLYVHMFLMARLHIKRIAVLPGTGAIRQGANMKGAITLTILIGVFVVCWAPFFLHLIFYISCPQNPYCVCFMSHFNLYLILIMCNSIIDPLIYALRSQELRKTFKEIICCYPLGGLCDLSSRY

| Ki ([1]; hek293) | Ki ([2]; hek293) | Ki ([1]; read-out: Ki) [nM] | Ki ([2]; read-out: Ki) [nM] | SMILES |
| --- | --- | --- | --- | --- |
| Not Active | Not Active |  |  | CC(C)C(O)CCC(C)C(O)CCC(C)C(O)CCC(OCCCCc1cn(CCCCCC(=O)N[C@@H](CO)C(N)=O)nn1)C(C)CCC(O)C(C)CCC(O)C(C)C (some centres not stated) |
|  |  | 1.7 |  | CCCC[C@H](NC(=O)[C@H](CO)NC(=O)CCCCCn1cc(CCCCOC(CCC(C)C(O)CCC(C)C(O)CCC(OCCCCc2cn(CCCCCC(=O)N[C@@H](CO)C(=O)N[C@@H](CCCC)C(=O)N[C@@H](CCC(=O)O)C(=O)N[C@@H](Cc3cnc[nH]3)C(=O)N[C@H](Cc3ccccc3)C(=O)N[C@@H](CCCNC(=N)N)C(=O)N[C@@H](Cc3c[nH]c4ccccc34)C(N)=O)nn2)C(C)CCC(O)C(C)CCC(O)C(C)C)C(C)C)nn1)C(=O)N[C@@H](CCC(=O)O)C(=O)N[C@@H](Cc1cnc[nH]1)C(=O)N[C@H](Cc1ccccc1)C(=O)N[C@@H](CCCNC(=N)N)C(=O)N[C@@H](Cc1c[nH]c2ccccc12)C(N)=O (some centres not stated) |
| Not Active | Not Active |  |  | CC(C)C(O)CCC(C)C(O)CCC(C)C(CCC(O)C(C)CCC(O)C(C)CCC(OCCCCc1cn(CCCCCC(=O)N[C@@H](CO)C(N)=O)nn1)C(C)C)OCCCCc1cn(CCCCCC(=O)N[C@@H](CO)C(N)=O)nn1 (some centres not stated) |
|  |  | 2.4 | 33 | CCCC[C@H](NC(=O)[C@H](CO)NC(=O)CCCCCn1cc(CCCCOC(CCC(O)C(C)CCC(O)C(C)CCC(O)C(C)C)C(C)CCC(O)C(C)CCC(O)C(C)C)nn1)C(=O)N[C@@H](CCC(=O)O)C(=O)N[C@@H](Cc1cnc[nH]1)C(=O)N[C@H](Cc1ccccc1)C(=O)N[C@@H](CCCNC(=N)N)C(=O)N[C@@H](Cc1c[nH]c2ccccc12)C(N)=O (some centres not stated) |
